What follows are compounds tested against T1, Nav1.7 (or SCN9A) channel (Homo sapiens, UniProt Q15858) (assay: Nav1.7 (hSCN9A) electrophysiology assay, PatchXpress platform). Conditions: estimated IC50 from single point electrophysiology data, HEK cells stably expressing hSCN9A, held at V1/2 of inactivation, read-out: Nav1.7 EIC50.
T1 construct: expressed in transfected cells
Format: cell-based
How it was run: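 HEK cells stably expressing hSCN9A were recorded by whole-cell voltage clamp, including on PatchXpress, at 22–24°C with extracellular solution at pH 7.4. A 20 msec step to 0 mV followed an 8 s conditioning prepulse to the empirically determined inactivation V1/2. Inhibition was taken from current amplitude before vs after compound.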

T1 sequence (Q15858 whole entry): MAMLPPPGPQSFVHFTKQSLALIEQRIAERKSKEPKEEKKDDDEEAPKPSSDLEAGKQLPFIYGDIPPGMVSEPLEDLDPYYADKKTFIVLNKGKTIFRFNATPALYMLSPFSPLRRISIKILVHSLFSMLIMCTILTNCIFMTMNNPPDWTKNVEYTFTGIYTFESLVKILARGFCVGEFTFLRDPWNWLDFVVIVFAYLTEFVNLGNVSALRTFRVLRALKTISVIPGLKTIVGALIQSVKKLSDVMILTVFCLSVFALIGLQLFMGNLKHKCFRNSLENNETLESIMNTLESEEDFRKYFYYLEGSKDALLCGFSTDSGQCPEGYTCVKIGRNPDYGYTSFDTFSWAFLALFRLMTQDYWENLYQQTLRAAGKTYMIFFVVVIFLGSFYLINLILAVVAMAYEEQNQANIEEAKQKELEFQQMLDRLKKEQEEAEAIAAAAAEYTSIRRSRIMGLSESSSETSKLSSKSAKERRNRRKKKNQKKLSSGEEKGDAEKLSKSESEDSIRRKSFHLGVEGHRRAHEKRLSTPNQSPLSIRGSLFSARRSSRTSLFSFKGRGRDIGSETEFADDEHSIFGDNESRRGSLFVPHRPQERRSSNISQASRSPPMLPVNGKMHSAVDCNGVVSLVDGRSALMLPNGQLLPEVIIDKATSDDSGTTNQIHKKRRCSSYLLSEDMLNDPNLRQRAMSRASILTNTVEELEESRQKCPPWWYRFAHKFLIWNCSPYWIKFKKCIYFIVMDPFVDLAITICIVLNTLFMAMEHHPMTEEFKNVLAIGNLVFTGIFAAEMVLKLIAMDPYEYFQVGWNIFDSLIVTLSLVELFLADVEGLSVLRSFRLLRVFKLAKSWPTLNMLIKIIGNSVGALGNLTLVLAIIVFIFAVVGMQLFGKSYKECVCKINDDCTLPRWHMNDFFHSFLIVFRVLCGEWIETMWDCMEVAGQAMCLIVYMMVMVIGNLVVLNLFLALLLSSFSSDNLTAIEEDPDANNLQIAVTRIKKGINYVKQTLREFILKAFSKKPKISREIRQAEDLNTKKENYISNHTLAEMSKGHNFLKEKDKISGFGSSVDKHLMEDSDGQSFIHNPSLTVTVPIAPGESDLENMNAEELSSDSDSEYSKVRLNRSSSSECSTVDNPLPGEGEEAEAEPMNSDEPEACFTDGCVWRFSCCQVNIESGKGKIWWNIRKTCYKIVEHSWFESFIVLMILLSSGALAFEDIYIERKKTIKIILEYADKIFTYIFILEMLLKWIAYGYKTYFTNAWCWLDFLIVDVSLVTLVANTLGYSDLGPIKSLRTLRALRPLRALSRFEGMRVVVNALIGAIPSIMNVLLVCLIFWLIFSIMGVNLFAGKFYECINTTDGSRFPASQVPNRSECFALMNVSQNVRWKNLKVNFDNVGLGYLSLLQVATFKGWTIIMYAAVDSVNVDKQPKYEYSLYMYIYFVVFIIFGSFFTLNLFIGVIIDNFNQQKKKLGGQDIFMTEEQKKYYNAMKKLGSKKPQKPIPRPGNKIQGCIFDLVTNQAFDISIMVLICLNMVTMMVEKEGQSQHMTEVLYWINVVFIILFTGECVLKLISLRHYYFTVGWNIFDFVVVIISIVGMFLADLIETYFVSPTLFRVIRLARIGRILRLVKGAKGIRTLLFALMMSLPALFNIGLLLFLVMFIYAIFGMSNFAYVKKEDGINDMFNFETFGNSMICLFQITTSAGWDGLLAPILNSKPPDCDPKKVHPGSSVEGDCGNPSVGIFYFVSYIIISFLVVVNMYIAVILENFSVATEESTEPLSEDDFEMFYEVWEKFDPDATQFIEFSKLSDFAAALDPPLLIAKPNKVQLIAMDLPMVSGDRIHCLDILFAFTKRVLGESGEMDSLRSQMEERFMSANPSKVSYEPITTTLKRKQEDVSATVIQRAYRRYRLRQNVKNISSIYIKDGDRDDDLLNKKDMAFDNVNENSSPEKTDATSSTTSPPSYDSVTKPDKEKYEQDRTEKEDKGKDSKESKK

Q: With `CS(=O)(=O)NC(=O)c1cc(F)c(COc2ccccc2OC(F)(F)F)cc1F` [Example 117, 2,5-difluoro-N-(methylsulfonyl)-4-{[2-(trifluoromethoxy)phenoxy]methyl}benzamide] as the compound, how does the IC50 read?
A: 2200 nM

Q: `CS(=O)(=O)NC(=O)c1cc(F)c(COc2cc(F)cc(F)c2)cc1F` [Example 118, 4-[(3,5-difluorophenoxy)methyl]-2,5-difluoro-N-(methylsulfonyl)benzamide] was tested. Which IC50 did it give?
A: > 1000 nM

Q: Which IC50 does the source give for `Cc1cc(C)cc(OCc2cc(F)c(C(=O)NS(C)(=O)=O)cc2F)c1` [Example 119, 4-[(3,5-dimethylphenoxy)methyl]-2,5-difluoro-N-(methylsulfonyl)benzamide] here?
A: 380 nM

Q: With `Cc1ccc(OCc2cc(F)c(C(=O)NS(C)(=O)=O)cc2F)cc1C` [Example 120, 4-[(3,4-dimethylphenoxy)methyl]-2,5-difluoro-N-(methylsulfonyl)benzamide] as the compound, how does the IC50 read?
A: 700 nM

Q: For `COc1ccc(Cl)c(OCc2cc(F)c(C(=O)NS(C)(=O)=O)cc2F)c1` [Example 122, 4-[(2-chloro-5-methoxyphenoxy)methyl]-2,5-difluoro-N-(methylsulfonyl)benzamide], which IC50 is on record?
A: 2200 nM

Q: `CS(=O)(=O)NC(=O)c1cc(F)c(COc2cc(C(F)(F)F)ccc2F)cc1F` [Example 123, 2,5-difluoro-4-{[2-fluoro-5-(trifluoromethyl)phenoxy]methyl}-N-(methylsulfonyl)benzamide] was tested. Which IC50 did it give?
A: 850 nM

Q: How did the IC50 turn out when `CS(=O)(=O)NC(=O)c1cc(F)c(COc2cc(F)cc(Cl)c2)cc1F` [Example 124, 4-[(3-chloro-5-fluorophenoxy)methyl]-2,5-difluoro-N-(methylsulfonyl)benzamide] was run?
A: 180 nM

Q: With `CS(=O)(=O)NC(=O)c1cc(F)c(COc2ccc(F)c(C#N)c2)cc1F` [Example 125, 4-[(3-cyano-4-fluorophenoxy)methyl]-2,5-difluoro-N-(methylsulfonyl)benzamide] as the compound, how does the IC50 read?
A: 1400 nM

Q: For `CS(=O)(=O)NC(=O)c1cc(F)c(COc2c(F)cccc2F)cc1F` [Example 126, 4-[(2,6-difluorophenoxy)methyl]-2,5-difluoro-N-(methylsulfonyl)benzamide], which IC50 is on record?
A: > 3000 nM

Q: Which IC50 does the source give for `CS(=O)(=O)NC(=O)c1cc(F)c(COc2ccc(C#N)c(F)c2)cc1F` [Example 127, 4-[(4-cyano-3-fluorophenoxy)methyl]-2,5-difluoro-N-(methylsulfonyl)benzamide] here?
A: 2600 nM

Q: `COc1cc(F)cc(OCc2cc(F)c(C(=O)NS(C)(=O)=O)cc2F)c1` [Example 128, 2,5-difluoro-4-[(3-fluoro-5-methoxyphenoxy)methyl]-N-(methylsulfonyl)benzamide] was tested. Which IC50 did it give?
A: 2900 nM

Q: How did the IC50 turn out when `CS(=O)(=O)NC(=O)c1cc(F)c(COc2ccc(F)c(F)c2Cl)cc1F` [Example 129, 4-[(2-chloro-3,4-difluorophenoxy)methyl]-2,5-difluoro-N-(methylsulfonyl)benzamide] was run?
A: 1900 nM

Q: With `CS(=O)(=O)NC(=O)c1cc(F)c(COc2ccc3ccccc3c2)cc1F` [Example 130, 2,5-difluoro-N-(methylsulfonyl)-4-[(2-naphthyloxy)methyl]benzamide] as the compound, how does the IC50 read?
A: 240 nM

Q: `Cc1cc(Cl)c(OCc2cc(F)c(C(=O)NS(C)(=O)=O)cc2F)cc1C#N` [Example 131, 4-[(2-chloro-5-cyano-4-methylphenoxy)methyl]-2,5-difluoro-N-(methylsulfonyl)benzamide] was tested. Which IC50 did it give?
A: > 1000 nM

Q: With `COc1cc(C#N)ccc1OCc1cc(F)c(C(=O)NS(C)(=O)=O)cc1F` [Example 132, 4-[(4-cyano-2-methoxyphenoxy)methyl]-2,5-difluoro-N-(methylsulfonyl)benzamide] as the compound, how does the IC50 read?
A: > 3000 nM

Q: For `CS(=O)(=O)NC(=O)c1cc(F)c(COc2ccc(Cl)cc2F)cc1F` [Example 133, 4-[(4-chloro-2-fluorophenoxy)methyl]-2,5-difluoro-N-(methylsulfonyl)benzamide], which IC50 is on record?
A: > 1000 nM

Q: `CS(=O)(=O)NC(=O)c1cc(F)c(COc2cc(Cl)ccc2Cl)cc1F` [Example 134, 4-[(2,5-dichlorophenoxy)methyl]-2,5-difluoro-N-(methylsulfonyl)benzamide] was tested. Which IC50 did it give?
A: 470 nM

Q: How did the IC50 turn out when `CS(=O)(=O)NC(=O)c1cc(F)c(COc2ccc(Cl)cc2C#N)cc1F` [Example 135, 4-[(4-chloro-2-cyanophenoxy)methyl]-2,5-difluoro-N-(methylsulfonyl)benzamide] was run?
A: > 3000 nM

Q: `CS(=O)(=O)NC(=O)c1cc(F)c(COc2cccc(N3CCOCC3)c2)cc1F` [Example 136, 2,5-difluoro-N-(methylsulfonyl)-4-[(3-morpholin-4-ylphenoxy)methyl]benzamide] was tested. Which IC50 did it give?
A: > 3000 nM

Q: How did the IC50 turn out when `CS(=O)(=O)NC(=O)c1cc(F)c(COc2ccccc2C#N)cc1F` [Example 137, 4-[(2-cyanophenoxy)methyl]-2,5-difluoro-N-(methylsulfonyl)benzamide] was run?
A: > 3000 nM

Q: `CS(=O)(=O)NC(=O)c1cc(F)c(COc2ccc(-c3cocn3)cc2)cc1F` [Example 138, 2,5-difluoro-N-(methylsulfonyl)-4-{[4-(1,3-oxazol-4-yl)phenoxy]methyl}benzamide] was tested. Which IC50 did it give?
A: 4200 nM

Q: `COc1cc(OCc2cc(F)c(C(=O)NS(C)(=O)=O)cc2F)ccc1-n1cccn1` [Example 139, 2,5-difluoro-4-{[3-methoxy-4-(1H-pyrazol-1-yl)phenoxy]methyl}-N-(methylsulfonyl)benzamide] was tested. Which IC50 did it give?
A: > 3000 nM

Q: For `CS(=O)(=O)NC(=O)c1cc(F)c(COc2c(F)ccc(F)c2F)cc1F` [Example 140, 2,5-difluoro-N-(methylsulfonyl)-4-[(2,3,6-trifluorophenoxy)methyl]benzamide], which IC50 is on record?
A: 2200 nM

Q: With `CS(=O)(=O)NC(=O)c1cc(F)c(COc2ccc(C(F)(F)F)cc2)cc1F` [Example 141, 2,5-difluoro-N-(methylsulfonyl)-4-{[4-(trifluoromethyl)phenoxy]methyl}benzamide] as the compound, how does the IC50 read?
A: 330 nM

Q: With `CS(=O)(=O)NC(=O)c1cc(F)c(COc2ccc(F)c(C(F)(F)F)c2)cc1F` [Example 142, 2,5-difluoro-4-{[4-fluoro-3-(trifluoromethyl)phenoxy]methyl}-N-(methylsulfonyl)benzamide] as the compound, how does the IC50 read?
A: 600 nM

Q: `CC(C)Oc1ccc(F)cc1OCc1cc(F)c(C(=O)NS(C)(=O)=O)cc1F` [Example 143, 2,5-difluoro-4-[(5-fluoro-2-isopropoxyphenoxy)methyl]-N-(methylsulfonyl)benzamide] was tested. Which IC50 did it give?
A: 9700 nM

Q: Which IC50 does the source give for `CS(=O)(=O)NC(=O)c1cc(F)c(COc2ccc(OC(F)(F)F)cc2)cc1F` [Example 144, 2,5-difluoro-N-(methylsulfonyl)-4-{[4-(trifluoromethoxy)phenoxy]methyl}benzamide] here?
A: 150 nM

Q: `CS(=O)(=O)NC(=O)c1cc(F)c(COc2ccc(F)cc2C2CC2)cc1F` [Example 145, 4-[(2-cyclopropyl-4-fluorophenoxy)methyl]-2,5-difluoro-N-(methylsulfonyl)benzamide] was tested. Which IC50 did it give?
A: 2300 nM

Q: `COc1ccc(OCc2cc(F)c(C(=O)NS(C)(=O)=O)cc2F)c(C#N)c1` [Example 146, 4-[(2-cyano-4-methoxyphenoxy)methyl]-2,5-difluoro-N-(methylsulfonyl)benzamide] was tested. Which IC50 did it give?
A: > 1000 nM

Q: How did the IC50 turn out when `CC(C)c1ccc(OCc2cc(F)c(C(=O)NS(C)(=O)=O)cc2F)cc1` [Example 147, 2,5-difluoro-4-[(4-isopropylphenoxy)methyl]-N-(methylsulfonyl)benzamide] was run?
A: 170 nM

Q: `CS(=O)(=O)NC(=O)c1cc(F)c(COc2ccc(Cl)cc2-c2ccno2)cc1F` [Example 148, 4-[(4-chloro-2-isoxazol-5-ylphenoxy)methyl]-2,5-difluoro-N-(methylsulfonyl)benzamide] was tested. Which IC50 did it give?
A: > 1000 nM

Source: patent US9096500B2, “Acyl sulfonamide compounds” (Pfizer Limited, priority 2010, dated 2015)
